Target: T1, 12-LO (Sus scrofa, UniProt P16469)
T1 construct: purchased Cayman Chemical Company
T1 sequence (P16469 1-663): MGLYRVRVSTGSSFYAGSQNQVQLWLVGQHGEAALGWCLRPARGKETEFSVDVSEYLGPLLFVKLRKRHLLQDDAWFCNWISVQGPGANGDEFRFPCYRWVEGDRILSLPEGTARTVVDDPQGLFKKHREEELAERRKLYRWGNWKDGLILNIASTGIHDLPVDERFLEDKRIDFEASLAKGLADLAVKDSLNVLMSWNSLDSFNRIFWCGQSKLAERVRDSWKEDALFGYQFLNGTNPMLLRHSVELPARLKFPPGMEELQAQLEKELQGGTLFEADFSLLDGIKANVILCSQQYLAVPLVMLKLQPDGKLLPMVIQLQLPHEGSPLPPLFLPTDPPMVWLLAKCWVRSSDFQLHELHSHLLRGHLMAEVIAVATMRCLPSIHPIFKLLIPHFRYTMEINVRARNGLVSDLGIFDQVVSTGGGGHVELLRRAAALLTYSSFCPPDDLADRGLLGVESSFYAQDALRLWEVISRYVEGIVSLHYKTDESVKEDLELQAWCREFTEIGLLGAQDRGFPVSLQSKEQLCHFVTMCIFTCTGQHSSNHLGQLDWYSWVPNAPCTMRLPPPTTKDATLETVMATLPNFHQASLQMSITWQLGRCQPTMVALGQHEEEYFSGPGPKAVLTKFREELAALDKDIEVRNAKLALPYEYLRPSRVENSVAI
Experiment: Effect on 12-LO catalysed oxidation of arachidonic acid
Type: biochemical, porcine

**Q.** How did the “Effect on 12-LO catalysed oxidation of AA” value turn out when CCCCC/C=C\C/C=C\C/C=C\C/C=C\CCCC(CCC(=O)O)[N+](=O)[O-] (stereo not shown) [Lx7, (a11-Z)-4-Nitrotricosa-8,11,14,17-tetraenoic acid] was run?
**A.** Substrate
